# Data: patent US9248134B1, “Fe(III) complex compounds for the treatment and prophylaxis of iron deficiency symptoms and iron deficiency anemias” (Vifor (International) AG, priority 2013, dated 2016)
# Test system: Male NMRI (SPF) mice fed a low-iron diet
# Test: Iron utilization in mouse model (low-iron diet)
# Format: in vivo
# Settings: stomach tube, 2 mg iron/kg body weight/day, days 1-5 and 8-12; utilization on day 15 calculated from hemoglobin increase and body weight increase
# Protocol: The excellent Fe utilizations that can be accomplished through the Fe complexes according to the invention were measured by means of the following mouse model.
# Male NMRI (SPF) mice (approximately 3 weeks old) were fed a low-iron diet (approx. 5 ppm iron) for approximately 3 weeks. The iron complexes were then administered to them by means of a stomach tube (2 mg iron/kg body weight/day) for 2 times 5 days, with an interruption of 2 days (days 1-5 and 8-12). 6 mice were the control group (negative control) and were administered with water instead. Utilization on day 15 was calculated from the hemoglobin increase and the body weight increase in accordance with the formula
# [formula] • 0.07=Factor for 70 ml blood per kg body weight (BW) • 0.0034=Factor for 0.0034 g Fe/g Hb • Hb1=Hemoglobin level (g/l) on day 1 • Hb2(3)=Hemoglobin level (g/l) on day 8 (or 15) • BW4=body weight (g) on day 1 • BW9(14)=body weight (g) on day 8 (or 15) • Hb1 Control=average hemoglobin level (g/l) on day 1 in the control group, • Hb2(3) Control=average hemoglobin level (g/l) on day 8 (or 15) in the control group, • BW4 Control=average body weight (g) on day 1 in the control group, • BW9(14) Control=average body weight (g) on day 8 (or 15) in the control group, • Fe Dos.=entire administered iron (mg Fe) over 5 or 10 days, • Fe ut.=(Hb2(3)*BW9(14)−Hb1*BW4)*0.07*0.0034 (mg Fe) • Δ Utilization=Fe tot. utilized (examined group)−Fe ut. Control group, utilized from food, (mg Fe)
row,Substance,Utilization n 15 d (abs. %)
1,"Tris-(3-hydroxy-N,N-dimethylisonicotinamide) iron(III) complex [Example 1]",68
2,Tris-(3-hydroxy-N-(2-methoxyethyl)isonicotinamide) iron(III) complex [Example 7],76
3,Tris-(N-butyl-3-hydroxyisonicotinamide) iron(III) complex [Example 6],76
